According to PMC7751820, “Synthesis, cytotoxic assessment, and molecular docking studies of 2,6-diaryl-substituted pyridine and 3,4- dihydropyrimidine-2(1H)-one scaffolds” (Turkish Journal of Chemistry, 2020):
In brackets after ≈: the same amount, converted by molar mass. Where two headings read alike, the source gives them in different places.

What was measured:
[1] = test system: MCF-7 cell line (human breast adenocarcinoma); assay: MTT cytotoxicity assay, MCF-7 cells; assay type: cell-based; conditions: for IC 50 (μg/mL) MCF-7 / IC50: MTT; for IC50: Homo sapiens, read-out: IC 50 (μg/mL) MCF-7; for effect on cell viability in MCF-7 cells: different concentrations, Figure 6, 24 h
Experimental: (§1) FBS, PBS, trypsin, penicillin, streptomycin, DMSO, 3-[4,5-dimethyl thiazol-2-yl]-2,5-diphenyltetrazoliumbromide (MTT), Triton X-100, and RPMI-1640 medium supplemented with 10% heat inactivated FBS were purchased from Sigma-Aldrich. The AGS, HEK293, and MCF7 cell lines were purchased from the National Cell Bank of Iran, Pasteur Institute of Iran, Tehran, Iran.
(§2) In this research, the effects of synthesized compounds on the viability of MCF-7, AGS, and HEK cells were evaluated at various concentrations (0.39–200 μg/mL) utilizing 3-(4,5-dimethylthiazol-2-yl)-2,5-diphenyltetrazolium bromide (MTT) assay. After thawing, the cells were cultured in RPMI 1640 medium containing 10% FBS, penicillin (100 U/mL), and streptomycin ([…]) at 37 °C in a humidified 5% CO2 incubator. The cells were seeded in a 96-well plate at a density of 5000 cells per well (the cells were stained with trypan blue and counted with a hemocytometer). The cells were incubated overnight at 37 °C before cell viability testing. A stock suspension of each of the synthesized compounds at 50 mg/mL in distilled water was prepared. After that, fresh suspensions of different concentrations of the synthesized compounds (2-fold serial dilutions from 0.39 to 200 μg/mL) were made using serial dilutions of the stock suspensions of the synthesized compounds in the RPMI 1640 medium immediately before use. Next, 200 μL of suspension (different concentrations of synthesized compounds) was added to each well of the micropentaplicates. The cells were incubated for 24 and 48 h under the same conditions. Wells without any synthesized compounds served as a negative control. The experiments were performed in pentaplicate for each concentration. To assess cell survival, 100 μL of MTT solution (2 mg/mL in PBS) was added to each well and incubated for 3 h at 37 °C to produce insoluble formazan. Next, 100 μL of DMSO was added to dissolve the formazan crystals, and the absorbance was measured using an Infinite M200 ELISA plate reader (Tecan, Männedorf, Switzerland) at 570 nm, with 630 nm as a reference wave length. The percentage of cell viability was calculated via the formula (A test /A control ) ×100, in which A test is the average absorbance of the treated cells and A control is the average absorbance of the negative control.
(§3) Cytotoxicity assessment of the cell lines were performed in pentaplicate, and the results were computed as mean ±SD. The experimental results were analyzed using one-way ANOVA analysis in SPSS 16.0 for Windows (SPSS Inc., Chicago, IL, USA) and P <0.05 was considered significant. The IC 50 values were calculated by nonlinear regression analysis using Finney probit analysis in SPSS.

[2] = test system: HEK293 cells (human embryonic kidney); assay: MTT cytotoxicity assay, HEK293 normal cells; assay type: cell-based; conditions: for IC50: Homo sapiens, read-out: IC 50 (μg/mL) HEK293; for cytotoxicity against HEK293 cells compared to the other analogs: pyridine derivatives, Figure 6, 24 h
Experimental: as §1, §2, §3

[3] = test system: AGS cells (gastric adenocarcinoma); assay: MTT cytotoxicity assay, AGS cells; assay type: cell-based, human; conditions: for IC50: Homo sapiens, AGS cells, MTT
Experimental: as §1
In this research, the effects of synthesized compounds on the viability of MCF-7, AGS, and HEK cells were evaluated at various concentrations (0.39–200 μg/mL) utilizing 3-(4,5-dimethylthiazol-2-yl)-2,5-diphenyltetrazolium bromide (MTT) assay. After thawing, the cells were cultured in RPMI 1640 medium containing 10% FBS, penicillin (100 U/mL), and streptomycin ([…]) at 37 °C in a humidified 5% CO2 incubator. The cells were seeded in a 96-well plate at a density of 5000 cells per well (the cells were stained with trypan blue and counted with a hemocytometer). The cells were incubated overnight at 37 °C before cell viability testing. A stock suspension of each of the synthesized compounds at 50 mg/mL in distilled water was prepared. […] Next, 100 μL of DMSO was added to dissolve the formazan crystals, and the absorbance was measured using an Infinite M200 ELISA plate reader (Tecan, Männedorf, Switzerland) at 570 nm, with 630 nm as a reference wave length. The percentage of cell viability was calculated via the formula (A test /A control ) ×100, in which A test is the average absorbance of the treated cells and A control is the average absorbance of the negative control.
as §3

[4] = MCF-7 cells, Table 7, 24 h per Figure 6
[5] = HEK293 cells, MTT, Table 7, 24 h per Figure 6
[6] = MCF7, 24 h, MCF-7 cells, Table 7, 24 h per Figure 6

Row | SMILES | IC 50 (μg/mL) MCF-7 [1, 4] [µg/mL] | IC50 [1, 6] [µg/mL] | IC50 [2, 5] [µg/mL] | melting point [°C] | effect on cell viability in MCF-7 cells [1] | cytotoxicity against HEK293 cells compared to the other analogs [2] | other results
1 | CCOC(=O)C1=C(C)NC(=O)NC1c1cccs1 (stereo not drawn) [4m] | 128.00 (≈ 481 µM) |  |  |  |  |  | IC 50 (μg/mL) HEK293 [2, 5]: 146.25 µg/mL (≈ 549 µM)
2 | CCOC(=O)C1=C(C)NC(=O)NC1c1c(Cl)cccc1Cl (stereo not drawn) [4r] |  |  |  |  |  |  | IC50 ([3]; 24 h, read-out: IC 50 (μg/mL) AGS (24 h)): 30 µg/mL (≈ 91.1 µM); IC50 ([3]; 48 h, read-out: IC 50 (μg/mL) AGS (48 h)): 4.97 µg/mL (≈ 15.1 µM); death of AGS cells ([3]; after treatment for 24 and 48 h, different concentrations (Figure 5)): ≥ 50%; IC50 ([1]; MCF7, MCF-7 cells, Table 6 (DHPMs 4j, 4r)): 0.17 µg/mL (≈ 0.516 µM); IC50 ([2]; HEK293): > 200 µg/mL
3 | N#Cc1c(-c2cccc(Cl)c2)cc(-c2ccccc2)nc1N [5c, 2-Amino-4-(3-chlorophenyl)-6-phenylnicotinonitrile] |  | 307 (≈ 1000 µM) | > 1000 | 168 to 170 |  |  | 
4 | N#Cc1c(-c2ccccc2F)cc(-c2ccccc2)nc1N [5g] |  | 71.9 (≈ 249 µM) | 950 (≈ 3280 µM) |  | considerable decrease in cell viability | less cytotoxic | 
5 | N#Cc1c(-c2c(Cl)cccc2Cl)cc(-c2ccccc2)nc1N [5l, 2-Amino-4-(2,6-dichlorophenyl)-6-phenylnicotinonitrile] |  |  |  | 174 to 176 |  |  | 
6 | N#Cc1c(-c2ccc(Cl)cc2Cl)cc(-c2ccccc2)nc1N [5m, 2-Amino-4-(2,4-dichlorophenyl)-6-phenylnicotinonitrile] | 82.90 (≈ 244 µM) | 82 (≈ 241 µM) | 259 (≈ 760 µM) | 179 to 181 | considerable decrease in cell viability | less cytotoxic | 
